# What was measured:
# N. gonorrhoeae L 1599 = test: in vitro antibacterial activity (standard dilution test); format: cell-based; settings: Neisseria gonorrhoeae, L1599; N. gonorrhoeae L 1599, clinically isolated, penicillinase producing; GC agar base + 1% Iso-Vitalex, CO2 enriched, 18-24 h, 37° C
# Experimental: (§1) Iso-Sensitest broth (Oxoid) and Todd-Hewitt broth (Difco) are used for staphylococci and streptococci, respectively, Neisseriae strains are cultured on GC agar base (Difco)+1% Iso-Vitalex (BBL) and Hemophylus is cultured on GC agar base (Difco)+1% Iso-Vitalex (BBL)+1% hemoglobin (Difco). Broth cultures are diluted so that the final inoculum is about 10^4 -10^5 colony forming units/ml (CFU/ml). […] Neisseriae strains are incubated in a CO2 enriched atmosphere.
# N. gonorrhoeae L 1596 = test: as above; format: cell-based; settings: Neisseria gonorrhoeae, L1596; N. gonorrhoeae L 1596, clinically isolated, resistant to spectinomycin; GC agar base + 1% Iso-Vitalex, CO2 enriched, 18-24 h, 37° C
# Experimental: as §1
Compound,MIC (N. gonorrhoeae L 1599) [µg/mL],MIC (N. gonorrhoeae L 1596) [µg/mL]
CC1(C)S[C@@H]2[C@H](NC(=O)Cc3ccccc3)C(=O)N2[C@H]1C(=O)O [penicillin],> 50,
CN[C@@H]1[C@H](O)[C@H](NC)[C@H]2O[C@@]3(O)C(=O)C[C@@H](C)O[C@H]3O[C@@H]2[C@H]1O [spectinomycin],,> 12

# Reference: patent US4607012A, “Antibiotic SB 22484” (Gruppo Lepetit S.p.A., priority 1983, dated 1986)
